Target: Mitogen-activated protein kinase 14 (Homo sapiens, UniProt Q16539)
Experiment: Inhibition of P38alpha (unknown origin)

Mitogen-activated protein kinase 14, sequence (Q16539 whole entry): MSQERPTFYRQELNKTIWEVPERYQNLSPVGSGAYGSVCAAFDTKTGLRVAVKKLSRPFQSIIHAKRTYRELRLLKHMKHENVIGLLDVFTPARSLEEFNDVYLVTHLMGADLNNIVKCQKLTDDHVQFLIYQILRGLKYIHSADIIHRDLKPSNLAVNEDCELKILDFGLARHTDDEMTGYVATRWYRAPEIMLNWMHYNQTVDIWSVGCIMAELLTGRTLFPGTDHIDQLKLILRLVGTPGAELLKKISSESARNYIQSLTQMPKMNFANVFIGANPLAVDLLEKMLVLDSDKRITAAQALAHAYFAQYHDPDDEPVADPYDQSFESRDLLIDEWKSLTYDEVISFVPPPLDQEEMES

O=C(Nc1cnn(-c2csc(C(=O)NC3CNC3)c2)c1)Nc1ccccc1Cl
IC50: > 20 µM

— BindingDB's records for doi:10.1021/acsmedchemlett.0c00533 (Reaction Biology, 2021)
